According to patent US6797500B2, “Genes involved in cyclododecanone degradation pathway” (E. I. du Pont de Nemours and Company, priority 1999, dated 2004):

Columns and labels:
Rhodococcus ruber SC1 = assay: Growth of Rhodococcus ruber SC1 on cyclic ketones as sole carbon and energy source; format: cell-based; conditions: for Growth of Rhodococcus ruber SC1: cyclic ketone as sole carbon and energy source
Protocol: Synthetic S12 medium was used to establish enrichment. S12 medium contains the following: 10 mM ammonium sulfate, 50 mM potassium phosphate buffer (pH 7.0), 2 mM MgCl2, 0.7 mM CaCl2, 50 μM MnCl2, 1 μM FeCl3, 1 μM […], 1.72 μM CuSO4, 2.53 μM CoCl2, 2.42 μM […], and 0.0001% FeSO4. The carbon sources were added directly to the S12 medium and the bacteria were grown in sealed culture flasks.
S12 agar was used to test isolates that utilize compounds as the sole source of carbon and energy. S12 agar was prepared by adding 1.5% Noble agar (DIFCO) to S12 medium. Bacteria growing on S12 agar were supplied with volatile compounds such as cyclododecanone by sprinkling solids of the volatile compound on the interior of the petri dish lid or 5 μl of other volatile liquid as vapor. The petri dish was sealed with parafilm and incubated with the lid on the bottom.
Rhodococcus ruber SC1 isolated from cyclododecanone (C12 cyclic ketone) enrichment culture was also tested for growth on cyclic ketones of different carbon numbers as sole carbon and energy source (Table 3). It grows well on cyclopentadecanone (C15 cyclic ketone), cyclotridecanone (C13 cyclic ketone), cyclododecanone (C12 cyclic ketone) and cycloundecanone (C11 cyclic ketone).

[1] = test system: monooxygenase and esterase on the S8C; assay: Production of different chain length hydroxy acids from cyclic ketones by recombinant E. coli cosmid clone S8C (GC/MS); format: cell-based, Escherichia coli; conditions: cyclic ketone substrate 250 mg/L
Protocol: Transformed XL1-Blue MR cells were grown in M9 medium with 0.4% glucose as sole carbon source. Substrate for conversion was added at early log phase (OD=0.2) and cells were allowed to grow at 30° C. for 20 additional hours. Cells were then frozen and thawed once, centrifuged, and supernatant was filtered through 0.2 μm filters. Filtrate was prepared for GC/MS analysis as described below.
Filtrate was first acidified to pH 2 using concentrated HCl. The acidified sample was extracted twice with methylene chloride or ethyl acetate. The extracts were combined and dried by adding anhydrous magnesium sulfate. Magnesium sulfate was then removed by filteration using Whatman 3MM filter paper and the remaining solvent in the filtrate was evaporated under a gentle stream of nitrogen. The dried residues were resuspended in 0.5 mL of methylene chloride as underivatized samples or derivatized with 0.5 mL of BSTFA [bis (trimethylsilyl) trifluoroacetamide] silylation reagent (SUPELCO, Bellefonte, Pa.). The GC/MS analysis was performed using a Hewlett Packard 5989B MS Engine GC/MS instrument. Samples were injected onto a 30 meter MDN-5S capillary column (SUPELCO, 0.5 μm film thickness) for separation. GC/MS analysis was conducted using electron impact ionization (70 eV).
Example 8 explores whether the cyclic substrates could be expanded to cyclic ketones of different chain length and whether corresponding hydroxy acids could be produced. S8C was grown as described above except that different cyclic ketones were added. Cyclohexanone (C6), cycloheptanone (C7), cyclooctanone (C8), cyclodecanone (C10), cycloundecanone (C11), cyclododecanone (C12), cyclotridecanone (C13) and cyclopentadecanone (C15) were added as substrates at 250 mg/L concentration. Identification of the corresponding hydroxy acids produced was performed by GC/MS analysis as described above. Large amount of corresponding hydroxy acids were detected from S8C grown in the presence of C11, C12 and C13 cyclic ketones. Medium level of 15-hydroxy acid was detected from C15 cyclic ketone grown cells. Small amount of hydroxy acids was detected from cells grown on C6 and C10 cyclic ketones. […] The substrate range of the monooxygenase and esterase on the S8C appeared to favor long chain cyclic ketones (C>10). This correlated well with the growth substrate range ([…]) of the Rhodococcus ruber SC1. The ability of Rhodococcus ruber SC1 to grow on cyclic ketones of C11-C15 was likely due to the relatively broad substrate specificity of the single set of monooxygenase and esterase encoded on S8C clone (Table 3). It is possible that mixture of the large cyclic ketones may be used as substrates in a biotransformation to produce a mixture of long chain hydroxy acids or diacids for certain applications.

| Compound | Growth of Rhodococcus ruber SC1 on cyclic ketone (in words) (Rhodococcus ruber SC1) | Growth of Rhodococcus ruber SC1 (Rhodococcus ruber SC1) | Corresponding Hydroxy Acid Produced by E. coli Cosmids [1] | Corresponding hydroxy acid detected (in words) [1] |
| --- | --- | --- | --- | --- |
| O=C1CCCCCCC1 [C8, cyclooctanone] | does not grow | − | − | No hydroxy acid was detected |
| O=C1CCCCCCCCCC1 [C11, cycloundecanone] | grows well | + | ++ | Large amount |
| O=C1CCCCCCCCC1 [C10, cyclodecanone] | grows moderately well | + | +/− | Small amount |
| O=C1CCCCCCCCCCCC1 [C13, cyclotridecanone] | grows well | + | ++ | Large amount |
| O=C1CCCCCCCCCCC1 [C12, cyclododecanone] | grows well | + | ++ | Large amount |
| O=C1CCCCCC1 [C7, cycloheptanone] | does not grow | − | − | No hydroxy acid was detected |
| O=C1CCCCC1 [C6, cyclohexanone] | does not grow | − | +/− | Small amount |
| O=C1CCCCCCCCCCCCCC1 [C15, cyclopentadecanone] | grows well | + | + | Medium level |
